In PMC7771553 (Journal of medicinal chemistry, 2017):
“Also recorded” adds a separate entry of the source. Like-named read-outs stand apart in the source and are kept apart here.

Tests used:
MDA-MB-231 cells [1] = conditions: for dose dependence of the cellular uptake: 10% FBS (1 and 2) or 5% FBS (3 and 4); for intracellular concentration relative to the input concentration: 24 h, volume of one million cells about 5.5 μL; for incubation time to maximum intracellular concentration: MDA-MB-231 cells; for intracellular moles relative to that of 4: 5% FBS
bromodomains = conditions: cited from earlier work
[2] = Cell-absent control: nonspecific binding with the cell culture plate; format: in vitro ADME; conditions: input 10, 20, 2, 20 μM for 1–4
[3] = Parallel artificial membrane permeability assay; format: in vitro ADME; conditions: PAMPA
MDA-MB-231 cells [4] = format: in vitro ADME; conditions: for nonspecific binding, 4 °C incubation (decrease of intracellular concentration): 6 h, compared with direct solvent extraction
MDA-MB-231 cells [5] = conditions: MDA-MB-231, 24 h; input 10, 20, 2, 20 μM for 1–4
[6] = Stability in DMEM media with or without 10% FBS; format: physicochemical; conditions: 72 h, negligible difference between samples with and without serum

For `CC(=O)c1cc(-c2cc(C(=O)NC3CC3)ccc2C)c2ncccn12` [Compound 1, TP-472, reference compound], the “dose dependence of the cellular uptake” value (MDA-MB-231 cells [1]; 6 h) is given as “first order”, the “inhibitory activities in cell-based NanoBRET assays” value (bromodomains) is given as “submicromolar” and the “nonspecific binding to the plates, percent of input concentration” value [2] is given as 1%. The “permeability through the artificial membrane” value [3] was “good permeability” and the “nonspecific binding, 4 °C incubation (decrease of intracellular concentration)” value (MDA-MB-231 cells [4]) was 77%.

For `CCOC(=O)CCCn1c2ccccc2c2nc3nonc3nc21` [Compound 8], the “cell-bound inhibitors at 4 °C” value (MDA-MB-231 cells [4]) was “little or no nonspecific binding”.

For `Cc1cc2c(cc1N1C(=O)c3cccc4c(CCCO)ccc(c34)C1=O)n(C)c(=O)n2C` [Compound 2, BAY-299, reference compound], the “increase in inhibitor cellular uptake” value (MDA-MB-231 cells [1]; 10-time increase in the input concentration (20–200 μM), 6 h) is listed as 13 times, the “dose dependence of the cellular uptake” value (MDA-MB-231 cells [1]; 6 h) is listed as “first order” and the “inhibitory activities in cell-based NanoBRET assays” value (bromodomains) is listed as “submicromolar”. The “cellular uptake (percent of the compound accumulated in the cells)” value (MDA-MB-231 cells [5]) was < 1%.

With `Cl.Cl.O=C(c1cc(F)cc(N2CCNCC2)c1)N1CCN(C(=O)c2ccc(O[C@H]3CCNC3)c(C3CCCCC3)c2)CC1` [Compound 4] the “dose dependence of the cellular uptake” value (MDA-MB-231 cells [1]; 6 h) was “plateaued when the input concentration was increased from 20 to 200 μM; also recorded: saturated at input concentrations >20 μM”, the “intracellular concentration relative to the input concentration” value (MDA-MB-231 cells [1]; input 10, 20, 2, 20 μM for 1–4) was ~65 times and the “incubation time to maximum intracellular concentration” value (MDA-MB-231 cells [1]) was 3 to 6 h. For the same compound, the “rate of decrease of intracellular moles” value (MDA-MB-231 cells [1]; input 20 μM, over 72 h, first order) was “about 85.5 ± 8.2 pmol/(million cells × h)”, the “time dependence of intracellular moles (metabolic stability in cells)” value (MDA-MB-231 cells [1]; over 72 h, input 10, 20, 2, 20 μM for 1–4) was “less stable” and the “compound remaining (percent of the initial concentration)” value [6] was “about 85%”. The “nonspecific binding to the plates, percent of input concentration” value [2] was 1% and the “nonspecific binding, 4 °C incubation (decrease of intracellular concentration)” value (MDA-MB-231 cells [4]) was 4%.

In the case of `Cl.Cl.O=C(Nc1ccc(O[C@H]2CCNC2)c(-c2ccc(F)cc2)c1)c1ccc(O[C@H]2CCNC2)c(-c2ccc(F)c(F)c2)c1` [Compound 3], the “dose dependence of the cellular uptake” value (MDA-MB-231 cells [1]; 6 h) was “logarithmic pattern (saturation kinetics)”, the “intracellular concentration relative to the input concentration” value (MDA-MB-231 cells [1]; input 10, 20, 2, 20 μM for 1–4) was “about 600 times” and the “incubation time to maximum intracellular concentration” value (MDA-MB-231 cells [1]) was 3 to 6 h. For the same compound, the “cell permeability relative to 4” value (MDA-MB-231 cells [1]; equal input concentrations compared (Figure 6)) was 1.7 times, the “intracellular moles relative to that of 4” value (MDA-MB-231 cells [1]; input concentration 2 μM, 6 h) was 1.9 times and the “intracellular moles relative to that of 4” value (MDA-MB-231 cells [1]; input concentration 20 μM, 6 h) was 1.5 times. For the same compound, the “nonspecific binding, 4 °C incubation (decrease of intracellular concentration)” value (MDA-MB-231 cells [4]) was 15%.
